Results from patent US11191804B2, “Cytocidal agent” (FUJITA ACADEMY, priority 2018, dated 2021).
Where no end group is shown, it is not given here. [ ]: non-standard residue; d: D form.

Tests used:
[1] = Body weight of endometriosis model mice after single intraperitoneal administration; format: in vivo, mouse; conditions: for Body Weight, 7th day: 7 days after cell transplantation, before peptide administration (baseline); for Body Weight, 7th day / Body Weight, 8th day: mean ± standard error
Method: Seven days after the A431-CNGB3-myc cells were intraperitoneally transplanted, 0.5 mL of physiological saline solution warmed to 37° C. was intraperitoneally administered to an endometriosis model mouse under isoflurane anesthesia, followed by performing massage. Immediately after the massage, a solution of the K14D-H5D peptide dissolved in physiological saline was intraperitoneally administered. The K14D-H5D peptide was administered at a dose of 0 mg/10 mL/kg (control) (n=7), 5 mg/10 mL/kg (n=8), or 10 mg/10 mL/kg (n=8) per mouse body weight
Each mouse was weighed 7 days after the A431-CNGB3-myc cells were intraperitoneally transplanted, before K14D-H5D peptide administration and before exsanguination.
The mouse group in which the dose of the K14D-H5D peptide per mouse body weight was 0 mg/10 mL/kg was represented as G1 group, the mouse group in which the dose of the K14D-H5D peptide per mouse body weight was 5 mg/10 mL/kg was represented as G2 group, and the mouse group in which the dose of the K14D-H5D peptide per mouse body weight was 10 mg/10 mL/kg was represented as G3 group. […] In the Table, “7th day” in the “Body Weight” column is the body weight 7 days after the intraperitoneal transplantation of the A431-CNGB3-myc cells, which was before the administration of the K14D-H5D peptide, and “8th day” is the body weight 24 hours after the administration of the K14D-H5D peptide.

OVCAR3-Luc cells = assay: Cytocidal activity by ATP amount (CellTiter-Glo assay kit); format: cell-based
Method: The tumor tissue to be transplanted to the mouse was prepared by culturing an ovarian cancer cell line (OVCAR3-Luc cells, transferred from another facility) into which the luciferase gene had been introduced, and used. The OVCAR3-Luc cells were cultured in a culture medium containing a RPMI medium 1640 (11875-093: manufactured by Gibco) containing 10% inactivated FBS (manufactured by Corning) at 37° C. and under a 5 vol % carbon dioxide environment. Passaging was carried out every 2-3 days.
(§1) The cytocidal activity of each peptide was evaluated by measuring the ATP amount in the cells treated with each peptide using CellTiter-Glo (registered trademark) assay kit (manufactured by Promega).
(§2) Specifically, first, the A431-CNGB3-myc cells or the OVCAR3-Luc cells after 3 to 4 passages were seeded in a 96-well plate (manufactured by Corning/Costar, Lot No. 00515003) so as to adjust the cell concentration to 1×10^4 cells/well. […] Luminescence (RLU: RELATIVE LIGHT UNITS) of each reaction solution after standing at room temperature was measured using a Synergy H1 hybrid multimode microplate reader (manufactured by BioTek). The luminescence intensity of the reaction solution is an index of the ATP amount. The smaller the luminescence intensity of the reaction solution, the smaller the ATP amount and the stronger the cytocidal activity of the administered peptide. […]

A431-CNGB3-myc cells = assay: as above; format: cell-based, human; conditions: peptide 2.34 to 300.0 μM, 24 hours, FIG. 1
Method: A transformed cell (A431-CNGB3-myc cell) obtained by introducing a gene encoding human CNGB3, in which an myc tag was fused in a C-terminal, into an A431 cell (human epithelial-like cell cancer-derived cell strain) and forcibly expressing thereof was prepared as an endometriosis model cell.
as §1
as §2, with “peptide. All trials were measured in triplicate, and the average value thereof was taken as the emission intensity (RLU) of each reaction solution.” for “peptide.”

## CC(C)C[C@@H](NC(=O)[C@@H](Cc1c[nH]cn1)NC(=O)[C@@H](C)NC(=O)[C@@H](CC(C)C)NC(=O)[C@@H](Cc1c[nH]cn1)NC(=O)[C@@H](CCCCN)NC(=O)[C@@H](C)NC(=O)[C@@H](CC(C)C)NC(=O)[C@@H](CCCCN)NC(=O)[C@@H](C)NC(=O)[C@@H](CC(C)C)NC(=O)[C@@H](CCCCN)NC(=O)[C@@H](CCCCN)NC(=O)[C@@H](C)NC(=O)[C@@H](CC(C)C)NC(=O)[C@@H](CCCCN)NC(=O)[C@@H](C)NC(=O)[C@@H](CC(C)C)NC(=O)[C@H](N)CCCCN)C(=O)O [Peptide K14D-H5D, KLAKLAK-KLAKLAK-HLAHL]
[1]; 5 or 10 mg/10 mL/kg single i.p., 24 hours after administration, depending on the dose
  change in body weight: slight decrease
[1]; G2 group, 5 mg/10 mL/kg i.p.
  Body Weight, 7th day: 20.1 ± 0.4 g
[1]; G2 group, 5 mg/10 mL/kg single i.p., 24 hours after administration
  Body Weight, 8th day: 19.2 ± 0.5 g
[1]; G3 group, 10 mg/10 mL/kg i.p.
  Body Weight, 7th day: 20.0 ± 0.4 g
[1]; G3 group, 10 mg/10 mL/kg single i.p., 24 hours after administration
  Body Weight, 8th day: 17.5 ± 0.3 g

## KLAKLAK-HLAHLAH-HLAHLAH-HLAH ([dK][dL][dA][dK][dL][dA][dK][dH][dL][dA][dH][dL][dA][dH][dH][dL][dA][dH][dL][dA][dH][dH][dL][dA][dH]) [Peptide K7D-H18D, reference compound]
OVCAR3-Luc cells; OVCAR3-Luc cells, peptide 2.34 to 300.0 μM, 24 hours, FIG. 2
  relative ATP amount (%) / cytocidal activity: decreased in a dose-dependent manner
A431-CNGB3-myc cells
  relative ATP amount (%) / cytocidal activity: decreased in a dose-dependent manner

## KLAKLAK-KLAKLAK-HLAHL-VRRADNRPG (KLAKLAKKLAKLAKHLAHLVRRADNRPG; not fully specified (some residues); printed as KLAKLAK-KLAKLAK-HLAHL-VRRADNRPG; also: D-amino acids, positions not given here) [Peptide K14D-H5D-Z13]
OVCAR3-Luc cells; OVCAR3-Luc cells having no CNGB3 on the cell surface, FIG. 3
  cytocidal activity compared with the K14D-H5D peptide: the same cytocidal activity
